This passage reports Ki results from article PMC7898615 (Chemistry (Weinheim an Der Bergstrasse, Germany), 2020).

In general, Ki refers to a measure of affinity in units of concentration, obtained from inhibition or displacement.

In the test the target is T1, tryptophan synthase (TS) complex, TrpA:TrpB (Salmonella enterica, UniProt P0A2K1).
T1 sequence (P0A2K1 1-397): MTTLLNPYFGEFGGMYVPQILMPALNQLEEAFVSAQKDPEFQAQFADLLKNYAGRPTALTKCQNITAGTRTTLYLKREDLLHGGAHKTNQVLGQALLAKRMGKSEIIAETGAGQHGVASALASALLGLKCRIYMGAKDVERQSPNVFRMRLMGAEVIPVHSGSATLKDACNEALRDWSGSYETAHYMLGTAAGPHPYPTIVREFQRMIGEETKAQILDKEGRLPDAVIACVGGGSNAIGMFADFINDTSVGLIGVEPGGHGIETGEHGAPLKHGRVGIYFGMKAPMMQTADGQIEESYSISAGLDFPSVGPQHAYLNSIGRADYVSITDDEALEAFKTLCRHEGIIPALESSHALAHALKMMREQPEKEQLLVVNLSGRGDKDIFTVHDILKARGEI
T1 sequence (P00929 1-268 partner): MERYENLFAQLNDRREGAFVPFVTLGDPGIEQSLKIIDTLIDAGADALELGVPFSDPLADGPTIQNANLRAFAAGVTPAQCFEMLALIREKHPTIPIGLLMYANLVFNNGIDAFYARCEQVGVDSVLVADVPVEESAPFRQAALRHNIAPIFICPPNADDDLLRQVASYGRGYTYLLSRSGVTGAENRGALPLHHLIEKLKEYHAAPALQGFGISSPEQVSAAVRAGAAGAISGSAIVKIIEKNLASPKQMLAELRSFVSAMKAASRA
Nature of the test: coupled VioA/HRP assay of Trp formation, […] nm, global fit. Format: biochemical.

`O=C(NCCCCOP(=O)(O)O)c1ccc(/N=N\c2ccccc2)cc1` [4d, 4 d (Z isomer)]: the Ki was more than 4000 µM. For the compound `O=C(NCCCCOP(=O)(O)O)c1ccc(/N=N/c2ccccc2)cc1` [4d, (E)‐4‐(4‐(phenyldiazenyl)benzamido)butyl dihydrogen phosphate], the affinity corresponds to a Ki of 640 ± 80 µM. Compound `O=C(NCCCCCOP(=O)(O)O)c1ccc(/N=N\c2ccccc2)cc1` [4e, 4 e (Z isomer)] had a Ki of 930 ± 420 µM. Compound `O=C(NCCCCCOP(=O)(O)O)c1ccc(/N=N/c2ccccc2)cc1` [4e, (E)‐5‐(4‐(phenyldiazenyl)benzamido)pentyl dihydrogen phosphate] had a Ki of 180 ± 40 µM. The same measure for `O=C(NCCCCCCOP(=O)(O)O)c1ccc(/N=N\c2ccccc2)cc1` [4f, 4 f (Z isomer)]: 100 ± 10 µM; for `O=C(NCCCCCCOP(=O)(O)O)c1ccc(/N=N/c2ccccc2)cc1` [4f, (E)‐6‐(4‐(phenyldiazenyl)benzamido)hexyl dihydrogenphosphate]: 50 µM.
